Assay results from patent publication US5376645A (University of Kansas, priority 1992, dated 1994).

Experiments:
[1] = Phase solubility: association constant with phenytoin; format: physicochemical; details: 1:1 complex
Excerpt: Similar results can be seen for progesterone (see Table 3 and FIGS. 5 and 6), phenytoin (see Table 4 and FIGS. 7 and 8), and testosterone (see Table 5 and FIGS. 9 and 10).

[2] = Phase solubility: association constant with digoxin; format: physicochemical; details: 1:1 complex
[3] = Plasma urea nitrogen (kidney function); format: in vivo; details: mice; 24 hrs; n = 4; normal saline control 15.88 ± 1.21
Excerpt: Plasma urea nitrogen levels are an indicator of kidney function with higher levels indicating renal damage. […] There is however no statistical difference between our derivatives and the hydroxypropyl derivative.
^(1) SIGMA Urea Nitrogen Procedure No. 640A

[4] = Phase solubility: association constant with testosterone; format: physicochemical; details: 1:1 complex
red blood cell = experiment: Hemolysis of red blood cells (membrane disruption); format: cell-based
Excerpt: The mono substituted derivatives caused about the same amount of membrane disruption as the hydroxypropyl derivative.

OC[C@H]1O[C@@H]2O[C@H]3[C@H](O)[C@@H](O)[C@@H](O[C@H]4[C@H](O)[C@@H](O)[C@@H](O[C@H]5[C@H](O)[C@@H](O)[C@@H](O[C@H]6[C@H](O)[C@@H](O)[C@@H](O[C@H]7[C@H](O)[C@@H](O)[C@@H](O[C@H]8[C@H](O)[C@@H](O)[C@@H](O[C@H]1[C@H](O)[C@H]2O)O[C@@H]8CO)O[C@@H]7CO)O[C@@H]6CO)O[C@@H]5CO)O[C@@H]4CO)O[C@@H]3CO [β-Cyclodextrin, β-cyclodextrin]
Phenytoin association constant K1:1 [1]: 1510 M⁻¹
Digoxin association constant K1:1 [2]: 28200 M⁻¹
Plasma Urea Nitrogen, PUN + S.D. [3]: 160.10 ± 26.16 mg/dL
Testosterone association constant K1:1 [4]: 17800 M⁻¹
membrane disruption / percent hemolysis (in words) (red blood cell): causing the most membrane disruption
